According to patent US9242945B2, “Substituted 2-benzylidene-2H-benzo[b][1,4]thiazin-3(4H)-ones, derivatives thereof, and therapeutic uses thereof” (TEMPLE UNIVERSITY—OF THE COMMONWEALTH SYSTEM OF HIGHER …, priority 2011, dated 2016):

Experiments:
[1] = system: RPWE-1; test: Cancer cell cytotoxicity assay, RPWE-1; format: cell-based; details: RPWE-1, Normal prostate epithelium
Protocol: (§1) The effect of the compounds of the invention on tumor cells was determined by the assay described by Latham et al., Oncogene 12:827-837 (1996). Tumor cells K562 (chronic myelogenous leukemia; leukemia cell line +ve for Bcr-Abl) or DU145 (prostate cancer) were plated in 12-well dishes at a cell density of 2.5×10^4 cells well. The plated cells were treated 24 hours later with a compound of the invention dissolved in DMSO at multiple concentrations ranging from 0.01 μM to 100 μM. The plates were examined 96 hours later under an inverted microscope, Olympus CK-2 using a 10× objective, and compound activity was noted by physical observation. When necessary, the total number of viable cells was determined by trypsinizing the wells and counting the number of viable cells, as determined by trypan blue exclusion, using a hemacytometer. Where “Lower” and “Upper” value are provided in Table 5, the IC50 was determined to be within that range. […]
(§2) The cytotoxicity of Compound 42, (Z)-6-((2,6-dichlorobenzyl)sulfonyl)-2-(4-hydroxy-3-nitrobenzylidene)-2H-benzo[b][1,4]thiazin-3(4H)-one, was determined according the assay method of Example 7 on the prostate (androgen dependent or independent), breast and pancreatic cancer cell lines listed in Table 6A, below, and the additional cell lines listed in Table 6B, below. […]

[2] = system: PC3; test: Cancer cell cytotoxicity assay, PC3; format: cell-based; details: Homo sapiens, PC-3; PC3, Prostate Cancer
Protocol: as §1, §2

[3] = system: H23; test: Cancer cell cytotoxicity assay, H23; format: cell-based; details: Homo sapiens, NCI-H23; H23, Non-small cell lung cancer
Protocol: as §1, §2

[4] = biological target: T1, CDK9 (Homo sapiens, UniProt P50750); test: CDK9 inhibition (32P-ATP kinase assay); format: biochemical; details: PDKtide substrate, 20 μM cold ATP
T1 construct: CDK9 (human full length protein; Invitrogen PV4335); purchased Invitrogen PV4335
T1 sequence (P50750 whole entry): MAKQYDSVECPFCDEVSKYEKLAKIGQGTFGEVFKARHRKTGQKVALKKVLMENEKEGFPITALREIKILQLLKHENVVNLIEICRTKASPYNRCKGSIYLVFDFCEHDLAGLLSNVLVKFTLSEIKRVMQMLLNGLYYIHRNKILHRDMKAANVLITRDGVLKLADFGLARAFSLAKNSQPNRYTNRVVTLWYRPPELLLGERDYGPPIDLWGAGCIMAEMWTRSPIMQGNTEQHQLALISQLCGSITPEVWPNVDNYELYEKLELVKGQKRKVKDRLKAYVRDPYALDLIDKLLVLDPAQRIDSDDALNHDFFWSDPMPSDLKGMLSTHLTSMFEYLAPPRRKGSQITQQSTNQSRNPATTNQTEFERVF
T1 sequence (O75909 whole entry partner): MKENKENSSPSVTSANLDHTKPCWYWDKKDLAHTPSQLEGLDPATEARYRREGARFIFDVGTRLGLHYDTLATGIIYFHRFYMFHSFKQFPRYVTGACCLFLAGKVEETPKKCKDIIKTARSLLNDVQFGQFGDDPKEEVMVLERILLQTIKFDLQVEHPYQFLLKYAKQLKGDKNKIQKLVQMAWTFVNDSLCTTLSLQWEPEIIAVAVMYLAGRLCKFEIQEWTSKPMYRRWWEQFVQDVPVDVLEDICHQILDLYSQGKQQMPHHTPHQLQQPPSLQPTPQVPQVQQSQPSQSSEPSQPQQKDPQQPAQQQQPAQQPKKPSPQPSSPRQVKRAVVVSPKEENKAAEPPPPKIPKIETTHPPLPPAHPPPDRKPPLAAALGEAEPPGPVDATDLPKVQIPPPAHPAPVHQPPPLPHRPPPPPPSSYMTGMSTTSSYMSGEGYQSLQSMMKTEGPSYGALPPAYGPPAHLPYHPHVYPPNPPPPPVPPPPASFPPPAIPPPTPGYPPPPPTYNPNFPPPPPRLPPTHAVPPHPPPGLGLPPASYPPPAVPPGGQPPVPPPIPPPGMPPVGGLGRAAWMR
Protocol: The ability of Compound 42 to inhibit the activity of the kinase CDK9 was determined as follows. Twenty-five nanograms of CDK9 (human full length protein; Invitrogen PV4335) was diluted into kinase buffer (20 mM Tris pH 7.5, 10 mM MgCl2, 0.01% NP-40, 1 mM EGTA, 2 mM DTT) and incubated with varying concentrations of Compound 42 at room temperature for 30 minutes. The kinase reactions were initiated by the addition of 20 μM of CDK9/Cyclin K specific synthetic peptide substrate (PDKtide, P10-58, SignalChem), 20 μM cold ATP, and 20 μCi γ-32P-ATP. The reactions were incubated at 30° C. for 20 minutes and terminated by the addition of 0.5M o-Phosphoric acid. 10 μl of the reaction mixture was spotted on a P-30 Filtermat (PerkinElmer) and developed using autoradiography or phosphorimaging.

[5] = system: 22Rv1; test: Cancer cell cytotoxicity assay, 22Rv1; format: cell-based; details: Homo sapiens; 22Rv1, Prostate Cancer
Protocol: as §1, §2

[6] = system: A549; test: Cancer cell cytotoxicity assay, A549; format: cell-based; details: Homo sapiens; A549, Non-small cell lung cancer
Protocol: as §1, §2

[7] = system: BT-474; test: Cancer cell cytotoxicity assay, BT-474; format: cell-based; details: Homo sapiens; BT-474, Breast Cancer
Protocol: as §1, §2

O=C1Nc2cc(S(=O)(=O)Cc3c(Cl)cccc3Cl)ccc2S/C1=C\c1ccc(O)c([N+](=O)[O-])c1 [Compound 42, (Z)-6-((2,6-dichlorobenzyl)sulfonyl)-2-(4-hydroxy-3-nitrobenzylidene)-2H-benzo[b][1,4]thiazin-3(4H)-one] showed a GI50 [1] of 100 nM, a GI50 [2] of 160 nM and a GI50 [3] of 65 nM. It also gave an IC50 [4] of 93.7 nM, a GI50 [5] of 500 nM and a GI50 [6] of 160 nM. For the same molecule, the GI50 [7] was 200 nM.
